Columns and labels:
[1] = system: NMDA receptor; conditions: cited from earlier work
[2] = system: head trauma; conditions: phase II; cited from earlier work
[3] = system: mouse experimental model of multiple sclerosis; assay: inhibition of spasticity in a mouse experimental model of multiple sclerosis; assay type: in vivo; conditions: for spasticity (limb stiffness assessed by the force required to bend the limb): ***P<0.001 compared to baseline
Protocol: FIG. 7 illustrates cannabinoid-mediated inhibition of spasticity in a mouse experimental model of multiple sclerosis^35. Compounds were injected intravenously (i.v.) and the level of THC (1 mg/kg i.v.) was matched to the THC content in a cannabis extract (obtained under UK Home Office Licence). […] Nabilone (1 mg/kg i.v.) a synthetic analogue of THC (generously supplied by Cambridge Biomedicals, Cesamet) could inhibit spasticity to maximal levels (˜45-50% inhibition). Mean change compared to baseline (n=10/group)

[4] = biological target: CB1 receptors (Homo sapiens, UniProt P21554); conditions: cited from earlier work
CB1 receptors, sequence (P21554 whole entry): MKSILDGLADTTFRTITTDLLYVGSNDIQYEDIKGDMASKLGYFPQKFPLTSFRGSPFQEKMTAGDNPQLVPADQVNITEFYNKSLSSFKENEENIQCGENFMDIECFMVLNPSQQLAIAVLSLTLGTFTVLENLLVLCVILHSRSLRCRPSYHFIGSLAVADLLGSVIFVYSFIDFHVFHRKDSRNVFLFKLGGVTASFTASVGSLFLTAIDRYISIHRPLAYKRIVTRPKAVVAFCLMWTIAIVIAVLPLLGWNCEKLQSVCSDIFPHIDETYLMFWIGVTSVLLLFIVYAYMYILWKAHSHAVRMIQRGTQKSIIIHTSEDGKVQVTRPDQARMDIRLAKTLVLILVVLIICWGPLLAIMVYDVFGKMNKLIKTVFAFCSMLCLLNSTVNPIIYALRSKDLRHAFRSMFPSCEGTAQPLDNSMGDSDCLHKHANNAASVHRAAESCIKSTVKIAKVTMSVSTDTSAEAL

[5] = in vivo; cited from earlier work
[6] = biological target: CB2 (Homo sapiens, UniProt P34972); conditions: cited from earlier work
CB2, sequence (P34972 whole entry, species assumed): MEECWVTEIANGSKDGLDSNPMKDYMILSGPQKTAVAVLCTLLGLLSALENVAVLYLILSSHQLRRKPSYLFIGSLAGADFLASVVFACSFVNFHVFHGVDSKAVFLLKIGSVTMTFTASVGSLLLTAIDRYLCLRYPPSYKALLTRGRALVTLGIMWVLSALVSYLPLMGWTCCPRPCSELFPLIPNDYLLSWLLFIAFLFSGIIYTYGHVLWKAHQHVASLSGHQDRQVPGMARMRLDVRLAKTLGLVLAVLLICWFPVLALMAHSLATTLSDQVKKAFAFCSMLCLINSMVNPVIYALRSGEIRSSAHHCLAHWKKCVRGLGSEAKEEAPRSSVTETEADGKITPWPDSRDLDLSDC

[7] = system: mRNA of IL-1, IL-6 and TNFα; conditions: BALB/C mice injected with cannabidiol; cited from earlier work
[8] = system: Legionella; conditions: mouse, in vivo; cited from earlier work
[9] = system: PBQ-induced writhing; conditions: given orally at doses up to 10 mg/kg; cited from earlier work
[10] = system: TPA-induced erythema; conditions: applied topically; cited from earlier work
[11] = system: mouse peritoneal macrophages activated by LPS and IFNγ; conditions: cited from earlier work
[12] = system: human leukocytes; conditions: cited from earlier work; for IFNγ synthesis: high concentrations (5-24µg/ml); for IFNγ production: low concentrations
[13] = system: levadopa-induced dyskinesia in Parkinson's disease; conditions: in vivo; cited from earlier work
[14] = system: people with chronic pain; conditions: oral; chronic pain (n=60), those with MS; cited from earlier work
[15] = system: tics in Tourette's syndrome; conditions: oral; cited from earlier work
[16] = system: MS patients; conditions: within one month after initiation of treatment; cited from earlier work

Question: Which results are given for `CCCCCCC(C)(C)c1cc(O)c2c(c1)OC(C)(C)[C@H]1CC=C(CO)C[C@H]21` [dexanabinol]?
Answer: NMDA receptor activity [1]: NMDA receptor antagonist; efficacy in head trauma [2]: some efficacy

Question: Which “spasticity (limb stiffness assessed by the force required to bend the limb)” value [3] does the source give for `CCCCCCC(C)(C)c1cc(O)c2c(c1)OC(C)(C)[C@@H]1CC=C(C(=O)O)C[C@@H]21` [ajulemic acid] here?
Answer: inhibits spasticity

Question: What about the “spasticity (limb stiffness assessed by the force required to bend the limb)” value ([3]; listed as Ajulemic acid) of the same molecule?
Answer: anti-spastic

Question: And the “direct stimulation of CB1 receptors” value [4]?
Answer: does not directly stimulate CB1 receptors to a significant extent

Question: What about the cannabimimetic effects [5] of the same molecule?
Answer: dose not induce cannabimimetic effects

Question: What does the source list for `C=C(C)[C@@H]1CCC(C)=C[C@H]1c1c(O)cc(CCCCC)cc1O` [Cannabidiol]?
Answer: binding to CB2 receptor [6]: does not bind; level of mRNA of IL-1, IL-6 and TNFα [7]: did not show significant change; mortality [8]: not affected; PBQ-induced writhing [9]: inhibited; TPA-induced erythema [10]: reduce; nitric oxide (NO) production [11]: inhibited; IL-1 production [12]: decreased; IL-2 secretion [12]: did not affect; TNFα production [12]: decreased; IFNγ synthesis [12]: completely blocked; IFNγ production [12]: increase; psychoactivity [5]: no psychotropic

Question: What does the source list for `CCCCCCC(C)(C)c1cc(O)c2c(c1)OC(C)(C)C1CCC(=O)CC21` (stereo not drawn) [Nabilone]?
Answer: inhibition at 1 mg/kg ([3]; Mus musculus, iv, 1 mg/kg i.v., mean change compared to baseline, maximal levels): 45 to 50%; levadopa-induced dyskinesia [13]: inhibit; MS patients reporting some analgesic effect [14]: six of 16

Question: With `CCCCCc1cc(O)c2c(c1)OC(C)(C)[C@@H]1CCC(C)=C[C@@H]21` [THC, delta 9 tetrahydrocannabinol] as the molecule, how does the “inhibition of spasticity” value ([3]; THC 1 mg/kg i.v.) read?
Answer: capacity to induce maximal inhibition of spasticity

Question: What about the “nitric oxide (NO) production” value [11] of the same molecule?
Answer: inhibited

Question: And the IFNγ synthesis [12]?
Answer: completely blocked

Question: And the IFNγ production [12]?
Answer: increase

Question: And the tics [15]?
Answer: can inhibit tics

B1: IFN-.gamma.: cytokine administered in attempts to alleviate the symptoms of MS (protein, UniProt P01579 24-161, looked up)
Interferon gamma: QDPYVKEAENLKKYFNAGHSDVADNGTLFLGILKNWKEESDRKIMQSQIVSFYFKLFKNFKDDQSIQKSVETIKEDMNVKFFNSNKKKRDDFEKLTNYSVTDLNVQRKAIHELIQVMAELSPAAKTGKRKRSQMLFRG
Question: Which “patients with clinical exacerbation” value [16] does the source give for B1 here?
Answer: 7 of 18

Reference: US20050070596A1, “Methods for treatment of inflammatory diseases using CT-3 or analogs thereof” (priority 2003, published 2005)
